“And” between values parts separate entries of the source, which are not always exact repeats. Equal entries are not always repeated. Inconclusive results and toxic doses are left out. Rule for the calls: active = survival T/C of 150% or more; inactive = T/C below 125% in these data.
Test system: P388 leukemia ip, CD2F1 mice, survival T/C
Assay: NCI In Vivo Anticancer Drug Screen. Data for tumor model P388 Leukemia (intraperitoneal) in CD2F1 (CDF1) mice
Settings: endpoint: median survival time, higher = longer survival
How it was run: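 Mice carrying the transplanted tumor received test compound or vehicle. Survival was recorded in each group, and the value is the treated-group measurement divided by that of the vehicle-treated control group.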

[1] = dose: 60.0 mg/kg/injection, schedule: Q01DX005 (ip), vehicle: saline with Tween-80
[2] = dose: 120.0 mg/kg/injection, schedule: Q01DX005 (ip), vehicle: saline with Tween-80
[3] = dose: 240.0 mg/kg/injection, schedule: Q01DX005 (ip), vehicle: saline with Tween-80
[4] = dose: 60.0 mg/kg/injection, schedule: Q01DX005 (ip), vehicle: Klucel (hydroxypropylcellulose) (HPC)
[5] = dose: 120.0 mg/kg/injection, schedule: Q01DX005 (ip), vehicle: Klucel (hydroxypropylcellulose) (HPC)
[6] = dose: 12.5 mg/kg/injection, schedule: Q01DX009 (ip), vehicle: Klucel (hydroxypropylcellulose) (HPC)

Measured: T/C

Cc1[nH]c(=O)[nH]c(=O)c1/C=C/C(=O)NC(CO)CS(=O)C(C)C (configuration not stated)
inactive: dose: 0.07 mg/kg/injection, schedule: Q01DX009 (ip), vehicle: water 103 % of control | dose: 0.15 mg/kg/injection, schedule: Q01DX009 (ip), vehicle: water 100 % of control | dose: 0.3 mg/kg/injection, schedule: Q01DX009 (ip), vehicle: water 103 % of control | dose: 0.6 mg/kg/injection, schedule: Q01DX009 (ip), vehicle: water 103 % of control | dose: 2.0 mg/kg/injection, schedule: Q01DX009 (ip), vehicle: water 121 % of control | dose: 4.0 mg/kg/injection, schedule: Q01DX009 (ip), vehicle: water 118 % of control | dose: 8.0 mg/kg/injection, schedule: Q01DX009 (ip), vehicle: water 118 % of control | dose: 32.0 mg/kg/injection, schedule: Q01DX009 (ip), vehicle: water 100 % of control and 124 % of control | dose: 64.0 mg/kg/injection, schedule: Q01DX009 (ip), vehicle: water 93 % of control | dose: 128.0 mg/kg/injection, schedule: Q01DX009 (ip), vehicle: water 98 % of control | dose: 200.0 mg/kg/injection, schedule: Q01DX009 (ip), vehicle: water 108 % of control | dose: 256.0 mg/kg/injection, schedule: Q01DX009 (ip), vehicle: water 96 % of control | dose: 300.0 mg/kg/injection, schedule: Q01DX009 (ip), vehicle: water 110 % of control | dose: 400.0 mg/kg/injection, schedule: Q01DX009 (ip), vehicle: water 113 % of control

O=C(O)CCSSCCCCCS(=O)O
inactive: dose: 50.0 mg/kg/injection, schedule: Q01DX005 (ip), vehicle: saline 100 % of control | dose: 100.0 mg/kg/injection, schedule: Q01DX005 (ip), vehicle: saline 104 % of control | dose: 200.0 mg/kg/injection, schedule: Q01DX005 (ip), vehicle: saline 104 % of control

Cc1ccsc1S(N)(=O)=O
inactive: dose: 12.5 mg/kg/injection, schedule: Q01DX005 (ip), vehicle: Klucel (hydroxypropylcellulose) (HPC) 95 % of control | dose: 25.0 mg/kg/injection, schedule: Q01DX005 (ip), vehicle: Klucel (hydroxypropylcellulose) (HPC) 98 % of control | dose: 50.0 mg/kg/injection, schedule: Q01DX005 (ip), vehicle: Klucel (hydroxypropylcellulose) (HPC) 106 % of control and 107 % of control | dose: 100.0 mg/kg/injection, schedule: Q01DX005 (ip), vehicle: Klucel (hydroxypropylcellulose) (HPC) 113 % of control | dose: 200.0 mg/kg/injection, schedule: Q01DX005 (ip), vehicle: Klucel (hydroxypropylcellulose) (HPC) 113 % of control

N/N=C1\c2ccccc2-c2cccc(N)c21
inactive: [1] 102 % of control | [2] 112 % of control | [3] 99 % of control

O=C(NS(=O)C1C=CCCC1)OC1CCCCC1c1ccccc1 (configuration not stated)
inactive: dose: 50.0 mg/kg/injection, schedule: Q01DX005 (ip), vehicle: saline with Tween-80 99 % of control | dose: 100.0 mg/kg/injection, schedule: Q01DX005 (ip), vehicle: saline with Tween-80 100 % of control | dose: 200.0 mg/kg/injection, schedule: Q01DX005 (ip), vehicle: saline with Tween-80 105 % of control

CC(=O)OCCNc1n[nH]c(=O)c2ccncc12
inactive: dose: 30.0 mg/kg/injection, schedule: Q01DX005 (ip), vehicle: saline with Tween-80 95 % of control | [1] 93 % of control | [2] 101 % of control | [3] 113 % of control

COc1ccc([N+](=O)[O-])c(/C=C/C(=O)c2ccccn2)c1
inactive: dose: 12.5 mg/kg/injection, schedule: Q01DX009 (ip), vehicle: distilled water + Tween-80 98 % of control | dose: 25.0 mg/kg/injection, schedule: Q01DX009 (ip), vehicle: distilled water + Tween-80 100 % of control | dose: 50.0 mg/kg/injection, schedule: Q01DX009 (ip), vehicle: distilled water + Tween-80 97 % of control | dose: 100.0 mg/kg/injection, schedule: Q01DX009 (ip), vehicle: distilled water + Tween-80 98 % of control | dose: 200.0 mg/kg/injection, schedule: Q01DX009 (ip), vehicle: distilled water + Tween-80 104 % of control

[Cl][Pt+2]([Cl])([Cl])[Cl].[Na+].[S-]c1ncnc2nc[nH]c12.[S-]c1ncnc2nc[nH]c12
inactive: dose: 132.0 mg/kg/injection, schedule: Q01DX009 (ip), vehicle: saline with Tween-80 100 % of control | dose: 200.0 mg/kg/injection, schedule: Q01DX009 (ip), vehicle: saline with Tween-80 109 % of control

CCOC(=O)c1c(C)[nH]c(-c2ccccc2)c1NS(=O)(=O)c1ccc(NC(C)=O)cc1
inactive: [1] 106 % of control | [2] 93 % of control | [3] 99 % of control

Clc1ccc(CNc2ncnc3[nH]ncc23)cc1Cl
inactive: dose: 100.0 mg/kg/injection, schedule: Q04DX003 (ip), vehicle: saline with Tween-80 104 % of control | dose: 200.0 mg/kg/injection, schedule: Q04DX003 (ip), vehicle: saline with Tween-80 100 % of control | dose: 400.0 mg/kg/injection, schedule: Q04DX003 (ip), vehicle: saline with Tween-80 95 % of control

c1ccc(Nc2ccc(CN3CCCC3)cc2)cc1
inactive: [4] 107 % of control | [5] 107 % of control | dose: 240.0 mg/kg/injection, schedule: Q01DX005 (ip), vehicle: Klucel (hydroxypropylcellulose) (HPC) 107 % of control

CCCCCCCCCCN1CCOCCOCCN(CCCCCCCCCC)CCOCCOCC1
inactive: dose: 1.56 mg/kg/injection, schedule: Q01DX005 (ip), vehicle: saline with Tween-80 105 % of control | dose: 3.13 mg/kg/injection, schedule: Q01DX005 (ip), vehicle: saline with Tween-80 100 % of control | dose: 6.25 mg/kg/injection, schedule: Q01DX005 (ip), vehicle: saline with Tween-80 107 % of control | dose: 12.5 mg/kg/injection, schedule: Q01DX005 (ip), vehicle: saline with Tween-80 99 % of control

[CH3][Sn]([CH3])([N]=C=S)[N]=C=S.c1ccc(-c2nnc(-c3ccccn3)nc2-c2ccccc2)cc1
inactive: [4] 100 % of control | [5] 104 % of control

CC1=C(C)CC2C(=O)c3c(c(O)c4ccccc4c3Cl)C(=O)C2C1 (configuration not stated)
inactive: dose: 50.0 mg/kg/injection, schedule: Q01DX001 (ip), vehicle: Klucel (hydroxypropylcellulose) (HPC) 90 % of control | dose: 100.0 mg/kg/injection, schedule: Q01DX001 (ip), vehicle: Klucel (hydroxypropylcellulose) (HPC) 89 % of control | dose: 200.0 mg/kg/injection, schedule: Q01DX001 (ip), vehicle: Klucel (hydroxypropylcellulose) (HPC) 86 % of control and 90 % of control | dose: 400.0 mg/kg/injection, schedule: Q01DX001 (ip), vehicle: Klucel (hydroxypropylcellulose) (HPC) 92 % of control

C=C1C(=O)OC2(C)CCC1CC1OC1(C)CCC=C(C)CCC2O (configuration not stated)
inactive: [6] 98 % of control | dose: 25.0 mg/kg/injection, schedule: Q01DX009 (ip), vehicle: Klucel (hydroxypropylcellulose) (HPC) 101 % of control | dose: 50.0 mg/kg/injection, schedule: Q01DX009 (ip), vehicle: Klucel (hydroxypropylcellulose) (HPC) 106 % of control | dose: 100.0 mg/kg/injection, schedule: Q01DX009 (ip), vehicle: Klucel (hydroxypropylcellulose) (HPC) 101 % of control | dose: 200.0 mg/kg/injection, schedule: Q01DX009 (ip), vehicle: Klucel (hydroxypropylcellulose) (HPC) 106 % of control

CC1(C)OC2(c3ccccc3)N(c3ccc([N+](=O)[O-])cc3)N=C(c3ccccc3)N2c2ccccc21 (configuration not stated)
inactive: dose: 100.0 mg/kg/injection, schedule: Q01DX001 (ip), vehicle: saline with Tween-80 89 % of control | dose: 200.0 mg/kg/injection, schedule: Q01DX001 (ip), vehicle: saline with Tween-80 89 % of control | dose: 400.0 mg/kg/injection, schedule: Q01DX001 (ip), vehicle: saline with Tween-80 88 % of control

Cc1cc(NCCCN(C)C)c2ccc3cc(NCCCN(C)C)c(C)nc3c2n1
inactive: dose: 25.0 mg/kg/injection, schedule: Q01DX009 (ip), vehicle: saline with Tween-80 96 % of control | dose: 50.0 mg/kg/injection, schedule: Q01DX009 (ip), vehicle: saline with Tween-80 104 % of control | dose: 100.0 mg/kg/injection, schedule: Q01DX009 (ip), vehicle: saline with Tween-80 102 % of control

Cl/C(=N\Nc1ccccc1)c1ccccc1
inactive: dose: 3.13 mg/kg/injection, schedule: Q01DX009 (ip), vehicle: Klucel (hydroxypropylcellulose) (HPC) 100 % of control | dose: 6.25 mg/kg/injection, schedule: Q01DX009 (ip), vehicle: Klucel (hydroxypropylcellulose) (HPC) 106 % of control | dose: 7.5 mg/kg/injection, schedule: Q01DX001 (ip), vehicle: saline sonified 109 % of control | [6] 104 % of control | dose: 15.0 mg/kg/injection, schedule: Q01DX001 (ip), vehicle: saline sonified 109 % of control | dose: 30.0 mg/kg/injection, schedule: Q01DX001 (ip), vehicle: saline sonified 109 % of control

CCCCCCCC[N+](C)([O-])CCCCCC[N+](C)([O-])CCCCCCCC (configuration not stated)
inactive: dose: 50.0 mg/kg/injection, schedule: Q01DX009 (ip), vehicle: saline 99 % of control | dose: 100.0 mg/kg/injection, schedule: Q01DX009 (ip), vehicle: saline 94 % of control

Reference: PubChem BioAssay AID330 (DTP/NCI, 2004)
